Experimental data taken from US8283324B2, “Immunomodulatory and anti-tumour peptides” (Centro de Ingenieria Genetica y Biotecnologia, priority 2006, dated 2012).

How the values were obtained:
[1] = competition ELISA for heparin-binding capacity; settings: peptides at 2 μM with 250 units of heparin; FIG. 2
Protocol: This assay consists on a competition ELISA system, similar to the previously described one. The biotinylated LALF32-51 peptide was adsorbed to polystyrene plates (Costar, USA) in 1×PBS and incubated overnight at 4° C. Analogous peptides L-2, L-8, L-12 and L-20 were mixed at 2 μM with 250 units of heparin (Sodic Heparin, 5,000 U/ml, Liorad) in 1×PBS plus 0.1% of bovine serum albumin (BSA). Afterwards, mixes were added to an ELISA plate containing 0.02 μM of the biotinylated LALF32-51 peptide adsorbed to the solid surface. After a 1 h-incubation at room temperature, plates were washed five times with washing solution and the biotinylated LALF32-51 peptide fixed to the solid surface was detected by incubating for 45 min at 37° C. with streptavidin-peroxidase conjugate at a 1:2,000. Afterwards, plates were washed five times with washing solution and the substrate solution was added. After an additional incubation for 15 min, the reactions were stopped with 2 M sulphuric acid solution. The lack of heparin binding to the analogous peptides correlates with the […] optical density, because they are unable to displace the heparin bound to the biotinylated LALF32-51 peptide adsorb to the solid surface. The unlabeled LALF32-51 peptide at a 100× molar excess was used as control of the assay.

IFN-α gene = IFN-α gene expression in human mononuclear cells (RT-PCR); type: cell-based; settings: 40 μg/ml, 18 h
Protocol: For this assay, human mononuclear cells were isolated by a Ficoll-Hypaque gradient from a leukocyte concentrate or “Buffy Coat” of a donor. Up to 5×10^6 were seeded in 24-well plates in RPMI 1640 medium supplemented with 10% calf fetal serum. Each peptide was further added at 40 μg/ml in a 0.1 ml volume of RPMI medium and cells were cultured for 18 h at 37° C. and 5% of CO2. Total RNA was extracted by using the TriReagent method. Afterwards, the expressions of IFN-α, IFN-γ and IL-12 genes were determined by the reverse transcription reaction and PCR amplification (RT-PCR kit, Perkin Elmer). Results are shown as relative amounts of messenger RNA normalized against expression levels of the β-actin housekeeping gene.

TC-1 tumor cells [2] = test: anti-tumoral effect in the TC-1 tumor model; type: in vivo; settings: 4 mg per kg s.c.
Protocol: Eight-to-ten weeks-old C57BI/6 female mice were used for this assay (n=10 animals per experimental group). For tumor graft, TC-1 tumor cells derived from C57BI/6 malignant epithelial lung cells were used, being resuspended in phosphate-buffered saline (PBS). An amount of 50,000 cells in a 200 μl volume was inoculated to mice by subcutaneous route in the right hind limb. The first peptide administration was carried out by subcutaneous route in the right flank once tumor reached a 100 mm^3 volume, and the second was carried out after 10 days. In this assay, a 4 mg per kg of weight dose was evaluated (80 μg/mice). Animal survival and tumor mass were the parameters evaluated to measure the anti-tumoral effect peptides of interest, as shown in FIGS. 4A and 4B. […] The Log Rank method was used as statistical analysis for detecting significant differences between groups.

TC-1 tumor cells [3] = test: prophylactic schedule of treatment in the TC-1 tumor model; type: in vivo; settings: 4 mg/kg, two injections before inoculation of TC-1 cells
Protocol: Eight-to-ten weeks-old C57BI/6 female mice were used for this assay (n=10 animals per experimental group). For tumor graft, TC-1 tumor cells, being resuspended in phosphate-buffered saline (PBS). Mice were first injected with the L-2 peptide (4 mg of peptide/kg of body weight). After 7 days, they received a second injection of the same dose; after 14 days of the first peptide injection, animals were inoculated with 50,000 cells in a 200 μl volume by subcutaneous route in the right hind limb. Parameters evaluated for measuring the anti-tumoral effect of the peptide included the time for tumor grafting (FIG. 6A) and the survival of animals (FIG. 6B).

[4] = system: mice lung cancer 3LLD122 cells; test: metastasis model of Lewis' carcinoma; type: in vivo, C57BI/6 female mice; settings: 4 mg/kg s.c. after 7 days; sacrifice 21 days after removal of primary tumor; FIG. 8
Protocol: Eight-to-ten weeks-old C57BI/6 female mice were used for this assay (n=8 animals per experimental group). These animals were inoculated in the posterior right footpad with 250,000 mice lung cancer 3LLD122 cells. After 7 days, a 4 mg/kg of body weight dose of the L-2 analogous peptide was subcutaneously injected. When tumors reached 8 mm in diameter, the primary tumor was surgically removed from the carrier leg. Mice were sacrificed 21 days after this surgical procedure. Lungs were weighed to indicate the amount of metastasis on them.

TC-1 cells = test: growth of tumor cells, crystal violet, TC-1; type: cell-based, C57BI/6; settings: 9 μM to 300 μM, 72 h; FIG. 9
Protocol: (§1) For this assay, TC-1, H-125 (non-small human ling cancer cells) and L929) murine fibroblast) cells were seeded in 96-well culture plates (Costar) at a 2×10^4 cells/ml in Dulbecco's modified Eagle's medium (DMEM)(Gibco) supplemented with Calf Fetal Serum (Gibco). After 24 h, the peptides were added to the culture in a range of 9 μM to 300 μM. […] Plates were extensively washed with tap water and plates were read at 562 nm. A pro-apoptotic peptide with a marked anti-proliferative effect in vitro was employed as positive control (Perea, S., et al (2004) Antitumor Effect of a Novel Proapoptotic Peptide that Impairs the Phosphorylation by the Protein Kinase 2 Cancer Research 64: 7127-7129).

[5] = system: L929 murine fibroblast cells; test: growth of cells, crystal violet, L929; type: cell-based; settings: 9 μM to 300 μM, 72 h; FIG. 9
Protocol: as §1

[6] = at 100 mm^3 tumor volume and after 10 days, FIG. 4

HARIKPTFRRLKWKYKGKFW [Peptide L-2, alanine-substituted analogue of LALF 32-51]
heparin binding [1]: unable to bind heparin
expression of the IFN-α gene compared to the LALF32-51 peptide (IFN-α gene; FIG. 3B): more effective
expression of the IFN-α gene (IFN-α gene; mRNA normalized against β-actin, FIG. 3A): capable of inducing the expression
survival of mice (TC-1 tumor cells [2]; [6]): prolonging survival of mice
tumor progression (tumor mass) (TC-1 tumor cells [2]; [6]): effective for inhibiting tumor progression
survival of animals compared to the LALF32-51 peptide (TC-1 tumor cells [2]; Log Rank, *p<0.05): significantly increase the survival of animals
time for tumor grafting (TC-1 tumor cells [3]; FIG. 6A): effective to prevent the development of the tumor
survival of animals (TC-1 tumor cells [3]; FIG. 6B): increased the survival of the animals
metastasis (lung weight) [4]: able to reduce the metastatic tumor events
anti-proliferative effect (TC-1 cells): dose-dependent anti-proliferative effect
anti-proliferative effect [5]: no effect was detected
